Series [1] concerns the target T1, HSA (Homo sapiens, UniProt P02768). Briefly: Relative dissociation constant of peptide-fused phage by double-reciprocal plot of phage titers. The protocol:
A single E. coli ER2738 colony was inoculated into 10 mL LB-Tet medium and incubated at 37 °C by shaking until mid-log phase (OD600∼0.5) for phage titering. Phage solutions were diluted 10-fold serially in TBS (50 mM Tris–HCl, pH 7.5, 150 mM NaCl) and aliquots of these solutions (50 µL) were added to a suspension of the prepared ER2738 cells (450 µL), 1 for each phage dilution. The phage-infected ER2738 cells (100 µL) were then poured from each dilution tube to an LB-Tet-IPTG-X-gal plate and the plates were incubated overnight at 37 °C. We determined the number of phage particles contained in the original stock phage culture by counting the number of plaques formed on the seeded agar plate and multiplying this by the dilution factor.
The concentration of bound phage [ ϕT] and free phage [ ϕ] can be calculated from the mass conservation equation, where [ ϕ] T is the total concentration of input phage and the concentration of target bound phage [ ϕT] can be estimated by eluted phage concentration [ ϕ] e, which is very much less than [ ϕ] T in our experiment. (6) ϕ=ϕt−ϕe≈ϕt (7) ϕT≈ϕe.
A double reciprocal plot of phage-target affinity measurement is generated by plotting 1/[ ϕ] e as a function of 1/[ ϕ] t. The slope is Kd/[T], the intercept on the vertical axis is 1/[T], and the intercept on the horizontal axis is −1/ Kd. […] (8) 1/ϕe=Kd/Tϕt+1/T.
Then TBST buffer wash the unbound phages, followed by the elution of the bound phages to the well with glycine-HCl, pH2.2. The concentration of input and eluted phage was quantitated by titration. […] These phage-fused peptides were subjected to DNA sequencing and their corresponding heptapeptide sequences are also shown in Table 3.

Series [2] deals with T1, HSA. Briefly: Phage clone binding to HSA, specificity ratio by phage titer. The note with it: for Blank control phage titre: single clone eluted from blank control well; for Blank control phage titre / Elute phage titre (HSA-coated well): input 1.16 × 10^12 (HSA-3), 1.34 × 10^13 (HSA-4) pfu/ml; for Elute phage titre (HSA-coated well): single clone. Also noted: purchased Sigma. The protocol:
After rapid washing three times with TBST (TBS + 0.1% [v/v] Tween-20), 100 µL of the diluted phage library (∼2 × 10^11 phage) was added to the well of the coated plate and rocked gently to let them absorb for 60 min. Following 10 washes with TBST, the bound phages were eluted with 0.2 M Gly-HCl, pH 2.2. The 100 µL that was eluted was neutralized with 15 µL Tris–HCl (1 M, pH 9.1) immediately. A small amount of eluted phage was titered as described above and the rest of elutes were added to 20 ml ER2738 culture (OD 600∼0.5) to be amplified 4.5 h at 37 °C for the next round.
To evaluate the efficiency of the phage display panning procedure, we created two selection criteria: the recovery yield and the specificity ratio. The recovery yield is the ratio of the titer of the eluted phage to the input phage. The specificity ratio is the ratio of the titer of the eluted phage from the target coated well to the blank control well. Recovery Y ield%=Elutephagetiterfromtarget/Inputphagetiter×100 Specificity Ratio=Elutephagetiterfromtarget/Elutephagetiterfromblank.
The amplified culture of phage clones was transferred to a 50 mL centrifuge tube and centrifuged for 10 min at 10,000 rpm at 4 °C with a high-speed refrigerated centrifuge (Himac CR21G). The supernatant was decanted to a fresh tube and precipitated by 1/5 volume of PEG/-NaCl (20% [w/v] Polyethylene Glycol–8000, 2.5 M NaCl) at 4 °C overnight and centrifuged for 20 min at 10,000 rpm. The supernatant was discarded and the sediment containing phage was suspended with TBS. To precipitate the phage again, a 1/5 volume of PEG/NaCl was added to the culture and it was stored at 4 °C for at least 60 min. The PEG suspension was centrifuged for 10 min at 10,000 rpm, the phage precipitate was suspended in 500 µL of TBS.
The sequences of HSA-binding peptides were determined by DNA sequencing of the selected phage using −96 gIII sequencing primer 5′-[…]-3′ in the Ph.D-7 phage library.
The specificity ratio was used to determine if positive phage clones with high HSA-binding affinity were isolated. […] We tested the selected clones with significant specificity ratios as potential HSA-binders, after screening many phage clones that consisted of microplate-surface-binding phages, the specific and non-specific target-binding phages, from the target-binding plate as shown in Table 3. The two selected clones, HSA-3 and HSA-4, show specificity ratios of 7.4 and 9.8, respectively, confirming that our method in the panning process is effective.

The target in series [3] is T2, Human serum albumin (human, UniProt P02768 25-609).
T2 construct: human serum albumin (HSA), bought from Sigma, coated on microplate wells; also called HSA; HSA target; source: bought: Sigma
Briefly: phage binding to coated microplate, read by phage titer (specificity ratio); HSA coated in microplate wells, no blocking protein; purified phage clone added, washed with TBST, eluted with Gly-HCl pH 2.2 and titered; ratio of the eluted titer from the HSA well to that from a blank well. Conditions: both partners purified.

Series [4] concerns the target T2, Human serum albumin. The series can be described thus: phage binding to coated microplate, read by phage titer (double reciprocal plot); constant HSA coated in microtiter wells, varying input phage until equilibrium, TBST wash, elution with glycine-HCl pH 2.2, input and eluted phage titered; relative dissociation constant = slope/intercept of 1/eluted against 1/input. The note with it: both partners purified.

For the molecule AESQKLN [HSA-3], the “Elute phage titer Φe” value at HSA [1] (HSA-3, sample 1, input 1.13×10^14 pfu/L) is 7.94×10^6 pfu/L; at HSA [1] (HSA-3, sample 2, input 5.8×10^13 pfu/L), 7.5×10^6 pfu/L; at HSA [1] (HSA-3, sample 3, input 3.36×10^13 pfu/L), 5.68×10^6 pfu/L; on HSA [1] (HSA-3, sample 4, input 2.16×10^13 pfu/L), 2.52×10^6 pfu/L; at HSA [1] (HSA-3, sample 5, input 1.52×10^13 pfu/L) it was 2×10^6 pfu/L. The “Elute phage concentration [Φ]e” value amounted to 7.98e-13 mol/L at HSA [1] (HSA-3, sample 2, input concentration printed 1.03×10^7 mol/L); 1.06e-14 mol/L at HSA [1] (HSA-3, sample 3, input concentration printed 1.79×10^7 mol/L); 2.39e-14 mol/L on HSA [1] (HSA-3, sample 4); 3.03e-14 mol/L on HSA [1] (HSA-3, sample 5, input concentration printed 3.99×10^7 mol/L). Further, the “Blank control phage titre” value at HSA [2] was 1.24 × 10^5 pfu/ml. In addition, at HSA [2], the “Elute phage titre (HSA-coated well)” value is reported as 9.16 × 10^5 pfu/ml.

Consider ITPLPLR [HSA-4], for which the “Elute phage titer Φe” value at HSA [1] (HSA-4, sample 1, input 5.90×10^13 pfu/L) is 5.0×10^6 pfu/L; at HSA [1] (HSA-4, sample 2, input 3.88×10^13 pfu/L), 4.32×10^6 pfu/L; on HSA [1] (HSA-4, sample 3, input 2.93×10^13 pfu/L), 2.87×10^6 pfu/L; on HSA [1] (HSA-4, sample 4, input 2.48×10^13 pfu/L), 2.8×10^6 pfu/L; at HSA [1] (HSA-4, sample 5, input 2.10×10^13 pfu/L) it was 2.16×10^6 pfu/L. The “Elute phage concentration [Φ]e” value on HSA [1] (HSA-4, sample 2, input concentration printed 1.55×10^7 mol/L) was found to be 1.4e-14 mol/L; at HSA [1] (HSA-4, sample 3, input concentration printed 2.05×10^7 mol/L), 2.1e-14 mol/L; on HSA [1] (HSA-4, sample 4, input concentration printed 2.44×10^7 mol/L), 2.2e-14 mol/L; on HSA [1] (HSA-4, sample 5, input concentration printed 2.86×10^7 mol/L), 2.8e-14 mol/L. For the same molecule, the Kd at HSA [1] (read-out: Relative dissociation constant, phage-fused peptide vs immobilized HSA, double-reciprocal plot 1/[Φ]e vs 1/[Φ]t, linear regression, elution glycine-HCl pH 2.2) came out at 388 nM. On HSA [2], the “Blank control phage titre” value is recorded as 5.22 × 10^5 pfu/ml. For the same molecule, the “Elute phage titre (HSA-coated well)” value on HSA [2] is given as 5.12 × 10^6 pfu/ml. Moreover, the Specificity ratio at HSA [2] (titer of eluted phage from target coated well / from blank control well) is reported as 9.8.

B1: HSA-3 peptide fused phage (peptide)
peptide: AESQKLN
notes: DNA GCGGAGAGTTAGAAGCTTAAT (TAG printed as Q); Measured as the peptide on whole phage, not as a free peptide; source: M13 phage clone from the Ph.D.-7 library, amplified in E. coli ER2738, purified (PEG/NaCl precipitation)
As to B1, in the series with Human serum albumin [3], the specificity ratio was determined as 7.4. In the series with Human serum albumin [4], this molecule displayed a Kd of 529 nM.

The values are drawn from publication PMC10215749, “Determination of the affinity constants for phage display albumin-binding peptides” (PeerJ, 2023).
